Experiment [1] deals with human Pax4 promoter. The experiment in a line: Pax4 reporter gene assay in INS-1-cl.-3.5 cells. The class given is cell-based, rat. To be noted: INS-1-cl.-3.5 or INS-1-cl.-9 cells; FIG. 18, FIG. 19. As to the method: (§1) INS-1E cell lines were grown as described below. The Pax-4-reporter gene construct (referred to as pKS-Pax-4-LUC), a cDNA construct containing a firefly luciferase reporter (LUC) gene under the transcriptional control of human Pax4 promoter sequences and the nearly complete human Pax4 gene locus (cf. FIG. 5A) was cloned into the plasmid pBluescript ks.
(§2) Adherent INS-1E cells were transfected using Lipofectamine 2000 (Invitrogen) according to the protocol provided by the supplier. The transfected cells were treated with media containing 400 μg/ml G418 Sulfate (e.g. Geneticin from Gibco; Cat. No. 11811-098), a selection agent for eukaryotic cells, 24 to 48 hours after the transfection. To establish independent stable cell lines, cell colonies which occurred 2 to 6 weeks after the transfection were individually transferred to new culture dishes and then propagated like untransfected INS-1E cells, but in the presence of G418 Sulfate.
(§3) For the identification and/or characterization of beta-cell mitogens a Pax4 reporter gene assay has been established. […]
(§4) Luciferase activity that can be quantified using appropriate imaging systems reflects the activation status of the human Pax4 promoter. […]

In experiment [2] the test system is Pax4. The experiment in a line: Pax4 expression in small intestine and colon.
Experiment [3] concerns Pax4. The experiment in a line: Pax4 expression in human islets. The following applies: 5 μM, 48 h. The class given is cell-based. The method, then: FIG. 2 illustrates relative Pax4 expression in untreated human islets and human islets, treated with 5 μM Kenpaullone (KP) for 48 h.
Further, human islets were treated with 5 μM Kenpaullone for 48 h. The treated islets show a 10-15 fold expression of Pax4 compared to untreated pancreatic islets.

The next experiment deals with Pax4 promoter. The experiment in a line: Cellular HTS-Pax4 screening assay (Capan-1 pKS-Pax-4-LUC luciferase reporter). The class given is cell-based, human. The following applies: Capan-1 pKS-Pax-4-LUC clone18; compound 10 μM with Trichostatin A 0.75 μM; 30 hour. The source says:
To perform high throughput screening for compounds that are either directly or indirectly capable of switching on Pax4 expression, a Pax4 reporter gene assay was established. Therefore, cDNA constructs containing a luciferase reporter gene under the control of the Pax4 promoter with the complete Pax4 gene locus were introduced into the human pancreatic duct cell line CAPAN-1.
Generation of stable Cell Lines and Drug Selections Capan-1 human pancreatic duct cell line ([HBT-79], purchased from American Type Culture Collection (ATCC), referred to as Capan-1 herein) were grown in high glucose DMEM [Gibco Cat. No. 61965-026] containing 10% FBS [Gibco Cat. No. 10270-106] at 37° C. under an atmosphere of 5% CO2. The Pax-4-reporter gene construct (referred to as pKS-Pax-4-LUC)— a cDNA construct containing a luciferase reporter (LUC) gene under the control of the Pax4 promoter with the complete Pax4 gene locus were cloned into the plasmid pBlueskript ks (FIG. 5). […]
Capan-1, stably transfected with pKS-Pax-4-LUC (clone18), cultivated without G418 for 4 day's, were plated at a density of 1×10^4 cells per 96 well plate [Greiner, LIA plate white, Cat. No. 655083] in 100 μl DMEM containing 10% (v/v) FBS without G418 and grown for 24 hour. […] The luminescence was measured within 15 minutes after reagent addition for maximum sensitivity.

Experiment [4] concerns Pax4. The experiment in a line: Pax4 transcription in INS-1E insulinoma cells, quantitative RT-PCR. The experiment is classed as cell-based, rat. To be noted: INS-1E cells. An excerpt:
The response of the Pax4 gene to test compounds was investigated in the rat insulinoma cell line INS-1E. INS-1E cells are known to express Pax4 and to upregulate Pax4 levels in response to the treatment with activin-A and betacellulin. In the search for novel beta cell mitogens and/or beta cell protective agents the inventors treated INS-1E cells with different test compounds.
(§5) Total RNA from 8×10^4 cells growing on 4 cm^2 surface area of a tissue culture dish was extracted using Qiagen RNAeasy kit according to the instructions of the manufacturer (Qiagen) and 2 μg was converted into cDNA. Primers for pax4, 18S RNA, and rat RNA polymerase II largest subunit (RPB1) were designed using the Primer Express 1.5 Software from Applied Biosystems and sequences can be obtained upon request. Quantitative real-time PCR was performed using Applied Biosystems SDS 7000 detection system. Amplifications from 2 independent experiments were performed in duplicate for each transcript and mean values were normalized to the mean value of the reference RNA 18S RNA.
Cells were seeded at a density of 2×10^4 cells per cm^2 6 to 8 days before the treatment with chemicals. During the growth period the medium was changed once. The cells were incubated for different periods of time with chemicals under serum-free conditions. The cells were harvested in Qiagen RNAeasy cell lysate buffer and immediately transferred to dry ice. The samples were stored at −20° C. until RNA isolation was carried out.
Cells were seeded at a density of 2×10^4 cells per cm^2 6 to 8 days before the treatment with chemicals. During the growth period the medium was changed once. The cells were incubated for different periods of time with chemicals under serum-free conditions. The cells were harvested in Qiagen RNA easy cell lysate buffer and immediately transferred to dry ice. The samples were stored at −20 degree until RNA isolation was carried out.

For the next experiment, the system named is minimal CMV promotor. The experiment in a line: Counter screen assay (Capan-1-pCMVmin-LUC-54 cells). The experiment is classed as cell-based, human. The following applies: compound 10 μM with Trichostatin A 0.75 μM, 30 hour. The method, then:
Generation of stable Cell Lines and Drug Selections Capan-1 human pancreatic duct cell line ([HBT-79], purchased from American Type Culture Collection (ATCC), referred to as Capan-1 herein) were grown in high glucose DMEM [Gibco Cat. No. 61965-026] containing 10% FBS [Gibco Cat. No. 10270-106] at 37° C. under an atmosphere of 5% CO2. The Pax-4-reporter gene construct (referred to as pKS-Pax-4-LUC)— a cDNA construct containing a luciferase reporter (LUC) gene under the control of the Pax4 promoter with the complete Pax4 gene locus were cloned into the plasmid pBlueskript ks (FIG. 5). The Minimal CMV reporter gene construct (referred to as pCMVmin-LUC): a fire fly luciferase reporter gene (LUC) under the control of a minimal CMV promotor (56 bp) was cloned into pcDNA3.1 plasmid (without promotor) (FIG. 6).
Stable transfected Capan-1-pCMVmin-LUC-54 cells, cultivated without G418 for 4 day's, were plated at a density of 4×10^4 cells per 96 well plate [Greiner, LIA plate white, Cat. No. 655083] in 100 μl DMEM containing 10% (v/v) FBS and grown for 24 hour. Cells were starved by serum starvation for 16 hour in 8511 medium without FBS [DMEM(Cat. No. 25030-024) containing 5% L-glutamine]. […] The luminescence was measured within 15 minutes after reagent addition for maximum sensitivity.

For experiment [5], the system named is RNA polymerase II largest subunit (RPB1). The experiment in a line: Expression of unrelated gene RPB1 in INS-1E cells, quantitative RT-PCR. The class given is cell-based, rat.
Text: The response of the Pax4 gene to mitogens was investigated in the rat insulinoma cell line INS-1E. INS-1E cells are known to express Pax4 and to upregulate Pax4 levels in response to the treatment with activin-A and betacellulin (Ueda (2000), supra, Li et al. (2004) supra, Brun et al. (2004), supra). In the search for novel beta-cell mitogens the inventors treated INS-1E cells with proteins related to activin A or betacellulin. […] The Pax4 RNA expression level was normalized to this of 18S RNA. The level of the unrelated gene RNA polymerase II largest subunit (RPB1) was unaffected by activin B treatment.
as §5
INS-1E cells were cultured as described (Merglen, (2004) Endocrinology; 145: 667-678). […]

Experiment [6] concerns human Pax4 promoter. The experiment in a line: Pax4 reporter gene assay in INS-1-cl-1.5 cells. The class given is cell-based, rat. As to the method: as §1, §2, §3, §4

Turning to TGF-beta 1: Activin related protein, the “Pax4 reporter response of clone (in words)” value in the experiment with human Pax4 promoter [1] is listed as “does not effect Pax4 transcription”.
For `O=C1Cc2c([nH]c3ccc(Br)cc23)-c2ccccc2N1` [Kenpaullone, 9-Bromo-7,12-dihydro-indolo[3,2-d][1]benzazepin-6(5H)-one], in the experiment with Pax4 [2], the “effect on Pax4 expression in small intestine and colon” value is reported as “No effect”. Besides, the “expression of Pax4 compared to untreated pancreatic islets” value in the experiment with Pax4 [3] is on record as 10-15 fold. Also, the “induction of luciferase activity” value in the experiment on Pax4 promoter is reported as 6 fold. Moreover, the “induction of relative Pax4 expression compared to the control” value in the experiment with Pax4 [4] (20 μM) is on record as 8 fold. In addition, the “Pax4 gene transcription over time (in words)” value in the experiment on Pax4 [4] (20 μM, FIG. 1) is given as “transiently induces Pax4 gene transcription”. In addition, the “induction in the counterscreen” value in the experiment on minimal CMV promotor was 1.2 fold.

B1: activin B: protein related to activin A (protein, UniProt P09529 293-407, looked up)
Inhibin beta B chain: GLECDGRTNLCCRQQFFIDFRLIGWNDWIIAPTGYYGNYCEGSCPAYLAGVPGSASSFHTAVVNQYRMRGLNPGTVNSCCIPTKLSTMSMLYFDDEYNIVKRDVPNMIVEECGCA
modifications: Inhibin beta B chain
For the molecule B1, the “level of RNA polymerase II largest subunit (RPB1)” value in experiment [5] is “unaffected”. Moreover, the “increase in Pax4 levels (maximal Pax4 induction)” value in the experiment on Pax4 [4] (1 nM) was ~7.5 fold. In addition, the “stimulation of Pax4 transcription relative to activin A (in words)” value in the experiment on Pax4 [4] (FIG. 16) is listed as “almost equally potent in stimulating Pax4 transcription as activin A”.

B2: Activin: Activin; figures 18 and 19 name activin-A (protein, UniProt P08476 311-426, looked up)
Inhibin beta A chain: GLECDGKVNICCKKQFFVSFKDIGWNDWIIAPSGYHANYCEGECPSHIAGTSGSSLSFHSTVINHYRMRGHSPFANLKSCCVPTKLRPMSMLYYDDGQNIIKKDIQNMIVEECGCS
modifications: Inhibin beta A chain
With B2, the “Pax4 reporter response of clone (in words)” value with human Pax4 promoter [1] is “react to Activin treatment”; with human Pax4 promoter [6], “does not react to Activin stimulation”.

Values taken from patent publication US20080207594A1, “Use of Gsk-3 Inhibitors for Preventing and Treating Pancreatic Autoimmune Disorders” (Davelogen Aktiengesellschaft, priority 2005, published 2008).
